The results in this text go back to BindingDB's records for doi:10.7270/Q2NZ862K (Nmmlsc, 2007).

As a reminder, the Ki is a dissociation constant, usually derived from enzyme kinetics or from competition with a known ligand. Lower therefore signals a stronger hold on the target.

Bounds are passed on as bounds.

This experiment addresses T1, fMet-Leu-Phe receptor (Homo sapiens, UniProt P21462).
T1 sequence (P21462 whole entry): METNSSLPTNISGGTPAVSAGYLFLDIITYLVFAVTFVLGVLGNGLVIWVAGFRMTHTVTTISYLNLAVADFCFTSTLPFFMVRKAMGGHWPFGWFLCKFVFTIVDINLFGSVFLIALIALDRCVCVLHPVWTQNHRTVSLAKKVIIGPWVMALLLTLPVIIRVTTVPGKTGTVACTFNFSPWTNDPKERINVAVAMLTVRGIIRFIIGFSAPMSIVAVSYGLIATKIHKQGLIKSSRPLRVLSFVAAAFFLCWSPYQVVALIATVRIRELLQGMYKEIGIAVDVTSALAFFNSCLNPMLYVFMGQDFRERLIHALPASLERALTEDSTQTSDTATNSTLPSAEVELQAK
The experiment is described as follows: formyl peptide receptor binders – dose response (AID 519).
Take `C=CCOc1ccc(C2C(C(=O)c3ccco3)C(=O)C(=O)N2Cc2cccnc2)cc1` (stereo not drawn) [3-(furan-2-carbonyl)-4-hydroxy-2-(4-prop-2-enoxyphenyl)-1-(pyridin-3-ylmethyl)-2H-pyrrol-5-one]: the Ki is 6.4 µM.

As to `COc1cc(C2C(C(=O)c3ccc(C)o3)C(=O)C(=O)N2Cc2cccnc2)ccc1O` (stereo not drawn) [2-(3-methoxy-4-oxidanyl-phenyl)-3-(5-methylfuran-2-yl)carbonyl-4-oxidanyl-1-(pyridin-3-ylmethyl)-2H-pyrrol-5-one], the Ki was over 43.7 µM.

Turning to `CCOc1cccc(C(=O)C2C(=O)C(=O)N(Cc3ccco3)C2c2ccncc2)c1` (stereo not drawn) [(4Z)-1-(2-furfuryl)-4-[hydroxy(m-phenetyl)methylene]-5-(4-pyridyl)pyrrolidine-2,3-quinone], the inhibitory constant (Ki) was over 43.7 µM.

In turn, `COc1cccc(C2C(C(=O)c3ccc(OC)c(OC)c3)C(=O)C(=O)N2c2cc(C)on2)c1` (stereo not drawn) [(4E)-4-[(3,4-dimethoxyphenyl)-hydroxy-methylene]-5-(3-methoxyphenyl)-1-(5-methylisoxazol-3-yl)pyrrolidine-2,3-quinone] registered a Ki of over 43.7 µM.

Turning to `O=C1C(=O)N(c2ncccn2)C(c2cccc(Cl)c2)C1C(=O)c1ccco1` (stereo not drawn) [2-(3-chlorophenyl)-3-(furan-2-carbonyl)-4-hydroxy-1-pyrimidin-2-yl-2H-pyrrol-5-one], the Ki is over 43.7 µM.

On to `Cc1nc2c(C)cccn2c1C(=O)C1C(=O)C(=O)N(CCN2CCOCC2)C1c1cccs1` (stereo not drawn) [(4E)-4-[(2,8-dimethyl-3-imidazo[1,2-a]pyridinyl)-hydroxymethylidene]-1-[2-(4-morpholinyl)ethyl]-5-thiophen-2-ylpyrrolidine-2,3-dione], for which the Ki is over 43.7 µM.

Take `COc1cc(C2C(C(=O)c3ccco3)C(=O)C(=O)N2CCc2ccccc2)ccc1O` (stereo not drawn) [3-(furan-2-carbonyl)-4-hydroxy-2-(4-hydroxy-3-methoxyphenyl)-1-(2-phenylethyl)-2H-pyrrol-5-one]: the inhibition constant (Ki) is over 43.7 µM.

In turn, `COCCCN1C(=O)C(=O)C(C(=O)c2ccccc2)C1c1ccc2c(c1)OCO2` (stereo not drawn) [(4E)-5-(1,3-benzodioxol-5-yl)-1-(3-methoxypropyl)-4-[oxidanyl(phenyl)methylidene]pyrrolidine-2,3-dione] returned an inhibition constant Ki of 19.4 µM.
